Data on eleven molecules can be found in ChEMBL document CHEMBL1201862, “PubChem BioAssay data set” (2004).

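Each compound was tested at five concentrations against cells in 96-well plates for 48 hours. At the GI50, growth is halved.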 Active and inactive are the calls of the source. Cut-off read from the data, not from the text of the source: active = GI50 up to about 1.1 µM and inactive = higher. Bounds are passed on as bounds.

Test systems include 786-0; ACHN; COLO 205; DU-145; HT-29; K562; KM12; M14; MDA-N; NCI-H226; NCI-H23; NCI/ADR-RES; OVCAR-8; PC-3; SF-268; SK-MEL-28; SW-620; U-251; HOP-92; NCI-H522.
What all share (assay): NCI-60 cell line screen, 48 h

Regarding `O=C(/C=C/c1cccs1)c1ccsc1`, the GI50 in the test with 786-0 was 28.8 µM (inactive); with ACHN, 20.2 µM (inactive); with COLO 205 it was 18.1 µM (inactive); with DU-145 it was 50.2 µM (inactive); in the test with HT-29 it was 19.3 µM (inactive); with K562 it was 17.5 µM (inactive). The GI50 was > 10 µM (inactive) in the test on KM12; 39.2 µM (inactive) in the test with M14; 18.9 µM (inactive) in the test with MDA-N; 21.1 µM (inactive) with NCI-H226; 18.1 µM (inactive) with NCI-H23; 35.2 µM (inactive) in the test on NCI/ADR-RES. Besides, the GI50 in the test on OVCAR-8 is 27.6 µM (inactive); with PC-3, 22.4 µM (inactive); with SF-268 it was 45.1 µM (inactive); in the test on SK-MEL-28, 32.7 µM (inactive); with SW-620 it was 29 µM (inactive); in the test with U-251, > 10 µM (inactive).

Turning to `COc1ccc(OC)c(/C=N/N=C2\C(=O)Nc3c(Cl)cc(Cl)cc32)c1`, the GI50 with 786-0 was 33.3 µM (inactive); with ACHN, 52.4 µM (inactive); in the test on COLO 205, > 100 µM (inactive); in the test on HOP-92, 47.3 µM (inactive); in the test on HT-29, 63.4 µM (inactive); with K562, 36 µM (inactive). For the same molecule, the GI50 in the test on KM12 was 35.4 µM (inactive); with M14, 68.4 µM (inactive); in the test on MDA-N, 20 µM (inactive); with NCI-H226 it was 82.6 µM (inactive); with NCI-H23 it was 48.4 µM (inactive); with NCI/ADR-RES, 20.2 µM (inactive). The GI50 is 61 µM (inactive) in the test on OVCAR-8; 38.8 µM (inactive) with PC-3; > 100 µM (inactive) in the test on SK-MEL-28; 43.4 µM (inactive) with SW-620; 38.7 µM (inactive) in the test on U-251.

Regarding `OCCCCCCCCCCCOc1ccc(C2OCC3(CO2)COC(c2ccc(OCCCCCCCCCCCO)cc2)OC3)cc1` (centres undefined), the GI50 in the test with 786-0, in the test with ACHN, in the test on COLO 205, with DU-145, in the test on HT-29 and in the test on K562 was > 50 µM (inactive) in each case. Also, the GI50 in the test on KM12 is > 50 µM (inactive); with M14, > 50 µM (inactive); in the test on MDA-N it was > 50 µM (inactive); with NCI-H226, 29.6 µM (inactive); with NCI-H23 it was > 50 µM (inactive); with NCI/ADR-RES it was > 50 µM (inactive). Moreover, the GI50 with OVCAR-8, in the test with PC-3, with SF-268, in the test with SK-MEL-28, with SW-620 and with U-251 was > 50 µM (inactive) each time.

On to `COc1cccc2c1OC(c1ccc(Cl)cc1)C([N+](=O)[O-])=C2` (centres undefined), for which the GI50 with 786-0 was 1.84 µM (inactive); in the test on ACHN, 1.46 µM (inactive); with COLO 205, 2.19 µM (inactive); with DU-145, 3.68 µM (inactive); in the test on HT-29 it was 1.35 µM (inactive); in the test with K562 it was 0.411 µM (active). For the same molecule, the GI50 with KM12 was 2.08 µM (inactive); in the test on M14, 1.11 µM (active); in the test with MDA-N, 1.42 µM (inactive); in the test with NCI-H23, 3.77 µM (inactive); in the test with NCI-H522 it was 1.59 µM (inactive); with NCI/ADR-RES, 3.79 µM (inactive). Further, the GI50 was 1.93 µM (inactive) with OVCAR-8; 1.66 µM (inactive) in the test on PC-3; 3.18 µM (inactive) in the test with SF-268; 2.61 µM (inactive) with SK-MEL-28; 2.38 µM (inactive) in the test on U-251.

As to `CO[C@@H](C(=O)OC1C=CC2(CC1)C(=O)N(C)c1ccccc12)c1ccccc1` (some centres undefined), the GI50 was > 100 µM (inactive) in the test on 786-0; > 100 µM (inactive) in the test with ACHN; 60 µM (inactive) in the test with COLO 205; > 100 µM (inactive) in the test with DU-145; > 100 µM (inactive) in the test with HOP-92; 65.8 µM (inactive) in the test on HT-29. Besides, the GI50 in the test on K562 is 20 µM (inactive); in the test on KM12, > 100 µM (inactive); with M14, 72.6 µM (inactive); in the test on MDA-N it was > 100 µM (inactive); in the test on NCI-H23, 76.6 µM (inactive); in the test on NCI/ADR-RES, 45.1 µM (inactive). Further, the GI50 with OVCAR-8, in the test on PC-3, in the test on SK-MEL-28, with SW-620 and with U-251 was > 100 µM (inactive) in each case.

As to `Cc1nc2ccccc2c(=O)n1NC(=O)c1ccccc1O`, the GI50 in the test with 786-0, in the test on ACHN, in the test on COLO 205, in the test with DU-145, in the test on HOP-92 and in the test on HT-29 was > 100 µM (inactive) throughout. Moreover, the GI50 with K562, with KM12, in the test with M14, with MDA-N, in the test with NCI-H226 and in the test with NCI-H23 was > 100 µM (inactive) throughout. Also, the GI50 in the test on NCI-H522, in the test on OVCAR-8, in the test on PC-3, with SF-268, with SK-MEL-28 and in the test on SW-620 was > 100 µM (inactive) each time. Besides, the GI50 with U-251 was > 100 µM (inactive).

On to `COC(=O)c1ccccc1Nc1nc(-c2cccs2)nc2cc(OC)c(OC)cc12`, for which the GI50 is 38.8 µM (inactive) in the test with 786-0; 47.8 µM (inactive) in the test with ACHN; 45.4 µM (inactive) in the test with COLO 205; 92.3 µM (inactive) with DU-145; 44.5 µM (inactive) in the test with HOP-92; > 100 µM (inactive) in the test on HT-29. Besides, the GI50 in the test on K562 was > 100 µM (inactive); in the test on KM12, 71.8 µM (inactive); in the test with M14, > 100 µM (inactive); in the test on NCI-H226, 23.4 µM (inactive); in the test on NCI-H23, 17.4 µM (inactive); with NCI-H522, 59.7 µM (inactive). Also, the GI50 in the test on NCI/ADR-RES was 57 µM (inactive); in the test on OVCAR-8, 15.2 µM (inactive); in the test on PC-3 it was 52.2 µM (inactive); in the test with SF-268, 46.3 µM (inactive); in the test on SK-MEL-28, > 100 µM (inactive); in the test with SW-620 it was > 100 µM (inactive). For the same molecule, the GI50 in the test with U-251 was 31.2 µM (inactive).

On to `O=[N+]([O-])c1cccc(-c2ccc([C@H]3CC(c4ccc(Cl)cc4)=NN3)o2)c1`, for which the GI50 is 14.6 µM (inactive) in the test on 786-0; 17.7 µM (inactive) in the test on ACHN; > 100 µM (inactive) in the test on COLO 205; 15.3 µM (inactive) in the test on DU-145; 17.3 µM (inactive) in the test on HOP-92; 21.3 µM (inactive) with HT-29. Also, the GI50 is 19.1 µM (inactive) with K562; 30.1 µM (inactive) in the test on M14; 24 µM (inactive) with MDA-N; 25.5 µM (inactive) in the test on NCI-H226; 21.2 µM (inactive) in the test with NCI-H522; 7.83 µM (inactive) in the test on NCI/ADR-RES. In addition, the results for the GI50 with OVCAR-8, with SF-268 and in the test with SW-620 were 12.3 µM (inactive), 27 µM (inactive) and 19.5 µM (inactive), respectively.

With `O=[N+]([O-])C(=C(Nc1cccc2cccnc12)Nc1cccc2cccnc12)C(Cl)=C(Cl)Cl`, the GI50 in the test with 786-0 was > 71.3 µM (inactive); in the test on ACHN it was 22 µM (inactive); with COLO 205, 31 µM (inactive); in the test with DU-145, 58.3 µM (inactive); with HT-29, > 39 µM (inactive); in the test with K562, 27.9 µM (inactive). Also, the GI50 in the test with KM12 is 45.2 µM (inactive); with M14, > 100 µM (inactive); in the test on MDA-N, 31.7 µM (inactive); in the test with NCI-H226, 63.1 µM (inactive); in the test with NCI-H23 it was 31.6 µM (inactive); in the test on NCI-H522, 17.3 µM (inactive). The GI50 with NCI/ADR-RES was 28.8 µM (inactive); in the test on OVCAR-8 it was 33.2 µM (inactive); in the test with PC-3, > 76 µM (inactive); in the test with SF-268 it was 42.9 µM (inactive); in the test with SK-MEL-28, > 56.9 µM (inactive); in the test on SW-620, 66.7 µM (inactive). Further, the GI50 with U-251 is 55.1 µM (inactive).

For the molecule `CCOC(=O)Nc1ccc2c(c1)N(C(=O)CCN(CC)CC)c1ccccc1S2` [ETHACIZINE], the GI50 with 786-0 is 24.4 µM (inactive); with ACHN, 29.8 µM (inactive); in the test with COLO 205, 20.5 µM (inactive); in the test on DU-145, 50.1 µM (inactive); in the test with HOP-92, 18.9 µM (inactive); with HT-29 it was 17.3 µM (inactive). For the same molecule, the GI50 in the test on K562 is 25.8 µM (inactive); in the test on KM12, 15.5 µM (inactive); in the test with M14, 22.9 µM (inactive); in the test with NCI-H226, 51.2 µM (inactive); in the test on NCI-H23 it was 31.8 µM (inactive); in the test with NCI-H522, 65.8 µM (inactive). Further, the GI50 with NCI/ADR-RES was 45.2 µM (inactive); in the test on OVCAR-8, 25 µM (inactive); in the test on PC-3 it was 31.4 µM (inactive); with SF-268, 27.8 µM (inactive); in the test on SK-MEL-28, 28.5 µM (inactive); in the test on SW-620, 25.4 µM (inactive). Moreover, in the test with U-251, the GI50 is 26.6 µM (inactive).

For the molecule `O=P(O)(O)c1ccc2c(c1)OCCOCCOCCOCCO2`, the GI50 in the test with 786-0, in the test with ACHN, in the test with COLO 205, in the test on DU-145, in the test on HT-29 and in the test on K562 was > 100 µM (inactive) in each case. Besides, the GI50 in the test on KM12, in the test on MDA-N, with NCI-H226, with NCI-H23, in the test on NCI-H522 and in the test on OVCAR-8 was > 100 µM (inactive) each time. The GI50 with PC-3, with SF-268, in the test on SK-MEL-28 and in the test with SW-620 was > 100 µM (inactive) each time.
